PMC10235067, “Increased renal elimination of endogenous and synthetic pyrimidine nucleosides in concentrative nucleoside transporter 1 deficient mice” (Nature Communications, 2023)

What was measured:
CNT1 [1] = details: Slc28a1+/+ and Slc28a1-/- mice; 12 h starvation
Experimental: (§1) Linearity was established for analytes over the concentration ranges observed and the lower limit of quantification of the LC–MS/MS assay was approximately 0.1 ng/ml for each analyte (Fig. S2).
(§2) Standard solutions of all nucleotide targets were serially diluted to generate calibration solutions at concentrations of 0.0, 0.0001, 0.001, 0.01, 0.1, 1.0, and 10 µg/ml. Urine samples were prepared by adding 20 µL of urine solution to 80 µL of 50:50 H2O:MeOH containing internal standard, vortexing and centrifuging at 20,000 × g; then, 50 µL aliquots were placed into glass vials, dried in a SpeedVac and reconstituted in 5% MeOH with 0.1% formic acid for injection.
(§3) Samples were quantified using a heated electrospray ionization source (HESI) on a Thermo Scientific TQS Quantiva triple quadrupole mass spectrometer, and separation was achieved using a Thermo Scientific Ultimate 3000 HPLC equipped with an Agilent 120 SB-C18 reversed-phase column (2 × 100 mm, 2.7 µm particle size) maintained at 40 °C. […] For all experiments, the capillary voltage was set to 4.5 kV with a capillary temperature of 350 °C, a vaporizer temperature of 100 °C, a sheath gas flow of 12, an auxiliary gas flow of 13, and a 1.6 sweep gas. For selected reaction monitoring (SRM) mode, Q1 and Q3 were set to 0.7 full width at half maximum (FWHM) resolution, a cycle time of 0.8 s, and a CID gas pressure of 1.5 mTorr.

CNT1 [2] = molecular target: T1, CNT1 (Mus musculus, UniProt E9PXX9); details: Slc28a1+/+ (CNT1 WT) mice, urine, one value per animal; Figure 2D-F source data
T1 sequence (E9PXX9 1-648): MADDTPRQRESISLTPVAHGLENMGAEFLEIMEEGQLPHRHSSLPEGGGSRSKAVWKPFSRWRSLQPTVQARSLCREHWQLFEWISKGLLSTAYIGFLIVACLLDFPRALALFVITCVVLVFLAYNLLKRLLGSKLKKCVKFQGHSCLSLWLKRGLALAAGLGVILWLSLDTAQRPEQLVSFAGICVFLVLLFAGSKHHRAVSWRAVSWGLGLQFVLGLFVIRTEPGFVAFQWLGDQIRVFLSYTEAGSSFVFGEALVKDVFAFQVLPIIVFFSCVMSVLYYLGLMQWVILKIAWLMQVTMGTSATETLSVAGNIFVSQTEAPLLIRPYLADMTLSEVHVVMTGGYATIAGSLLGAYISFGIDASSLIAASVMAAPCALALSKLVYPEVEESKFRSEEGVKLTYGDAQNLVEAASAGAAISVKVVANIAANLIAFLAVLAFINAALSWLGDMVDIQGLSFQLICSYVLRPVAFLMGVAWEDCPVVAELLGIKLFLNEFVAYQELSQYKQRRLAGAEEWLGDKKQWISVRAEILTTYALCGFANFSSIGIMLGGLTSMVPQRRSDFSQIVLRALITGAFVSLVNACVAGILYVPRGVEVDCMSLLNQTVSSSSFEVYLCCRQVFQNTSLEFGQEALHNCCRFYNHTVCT
Experimental: as §1, §2, §3

- Concentration in urine (CNT1 [1]): undetectable
- Urine level of nucleoside / deoxynucleoside / nucleobase, CNT1 WT Urine (individual mice) (CNT1 [2]): 0
SMILES: Nc1ncnc2c1ncn2[C@H]1C[C@H](O)[C@@H](CO)O1 [deoxyadenosine]
